What was measured:
Sphaerotheca fuliginea = assay: Cucumber powdery mildew preventive test; assay type: in vivo; conditions: in vivo; as to Control value: test concentration or dose not given here
Experimental: In a greenhouse, cucumber (variety: Sagamihanshiro) planted in a plastic pot having a diameter of 5 cm was grown to the 3rd to 5th-leaf stage. Spray was carried out in the same manner as in Test example 1, and 3 days after the spray, a conidia suspension prepared from Sphaerotheca fuliginea were inoculated on the leaf surface. After inoculation, the pots were placed in a thermostatic greenhouse (20 to 25° C.), and controlling effects were examined after 7 days from the inoculation. In the examination, a ratio of lesion area occupied per one leaf of cucumber was determined according to the same index as in Test example 1, and the control value and the theoretical value according to Colby's formula were similarly calculated.
Wettable powder prepared in compliance with Comparative Preparation Example 4 containing the compounds indicated in Table 7-9 were sprayed to the cucumber leaves, a conidiospore suspension prepared from Sphaerotheca fuliginea was inoculated onto the plants, and the controlling effects were examined in a manner similar to Test Example 6.

Botrytis cinerea = conditions: in vivo

Work on `Fc1ccc([C@]2(Cn3cncn3)O[C@H]2c2ccccc2Cl)cc1` (racemic) [Epoxiconazole (b-24), Epoxiconazole] yielded a Preventive value (Sphaerotheca fuliginea) of 40 and a Preventive value (Botrytis cinerea) of 33.
`CCCCNC(=O)n1c(NC(=O)OC)nc2ccccc21` [Benomyl (b-58), Benomyl] was tested, and the Preventive value (Sphaerotheca fuliginea) was 50 and the Preventive value (Botrytis cinerea) was 60.
Compound `COC(=O)Nc1nc2ccccc2[nH]1` [Carbendazim (b-59), Carbendazim] has a Preventive value (Botrytis cinerea) of 40.
`CC1=C(C(=O)Nc2ccccc2)SCCO1` [Carboxin (b-41), Carboxin] showed a Control value (Sphaerotheca fuliginea) of 40 and a Preventive value (Botrytis cinerea) of 17.
`Cc1ccc2nc3sc(=O)sc3nc2c1` [Chinomethionat (b-74), Chinomethionat] showed a Preventive value (Sphaerotheca fuliginea) of 50 and a Preventive value (Botrytis cinerea) of 17.
Compound `Fc1ccc(C2(Cn3nc[nH]c3=S)OC2c2ccccc2Cl)c(F)c1` (stereo not shown) [Compound of (V) (b-36)] has a Preventive value (Sphaerotheca fuliginea) of 33 and a Preventive value (Botrytis cinerea) of 40.
`OC(c1cccnc1)c1c(-c2ccc(Cl)cc2F)noc1-c1ccc(F)cc1F` (stereo not shown) [Compound of (XVIII) (b-92)] gave a Preventive value (Sphaerotheca fuliginea) of 40 and a Preventive value (Botrytis cinerea) of 50.
Work on `CON(C(=O)c1cn(C)nc1C(F)F)C(C)Cc1c(Cl)cc(Cl)cc1Cl` (stereo not shown) [Compound of formula (III) (b-8)] yielded a Preventive value (Sphaerotheca fuliginea) of 60 and a Preventive value (Botrytis cinerea) of 40.
`CC(C)c1ccc(Cl)cc1CN(C(=O)c1c(C(F)F)nn(C)c1F)C1CC1` [Compound of formula (IV) (b-9)] gave a Preventive value (Sphaerotheca fuliginea) of 60 and a Preventive value (Botrytis cinerea) of 40.
With `Cc1nn(C)c(Nc2c(F)cc(Cl)cc2F)c1-c1ccc(F)cc1Cl` [Compound of formula (XV)-1 (b-89)] the Preventive value (Sphaerotheca fuliginea) was 40 and the Preventive value (Botrytis cinerea) was 40.
`CCN(C)/C=N/c1cc(C)c(Oc2nc(Cc3ccc(Cl)cc3)ns2)cc1C` [Compound of formula (XVII) (b-91)] was tested, and the Preventive value (Sphaerotheca fuliginea) was 40 and the Preventive value (Botrytis cinerea) was 40.
In the case of `CC(C1CC1)C(O)(Cn1cncn1)c1ccc(Cl)cc1` (stereo not shown) [Cyproconazole (b-28), Cyproconazole], the Preventive value (Sphaerotheca fuliginea) is reported as 47 and the Preventive value (Botrytis cinerea) is reported as 17.
For `Cc1cc(C2CC2)nc(Nc2ccccc2)n1` [Cyprodinil (b-61), Cyprodinil], the Control value (Sphaerotheca fuliginea) was 40 and the Preventive value (Botrytis cinerea) was 50.
In the case of `CC1COC(Cn2cncn2)(c2ccc(Oc3ccc(Cl)cc3)cc2Cl)O1` (stereo not shown) [Difenoconazole (b-29), Difenoconazole], the Preventive value (Sphaerotheca fuliginea) is reported as 40 and the Preventive value (Botrytis cinerea) is reported as 33.
Compound `CC(Cc1ccc(C(C)(C)C)cc1)CN1CCCCC1` (stereo not shown) [Fenpropidin (b-102), Fenpropidin] has a Preventive value (Sphaerotheca fuliginea) of 40 and a Preventive value (Botrytis cinerea) of 17.
Work on `CC(Cc1ccc(C(C)(C)C)cc1)CN1C[C@@H](C)O[C@@H](C)C1` (stereo partly shown) [Fenpropimorph (b-65), Fenpropimorph] yielded a Preventive value (Sphaerotheca fuliginea) of 33 and a Preventive value (Botrytis cinerea) of 17.
Compound `C=CCSC(=O)n1c(N)c(-c2ccccc2C)c(=O)n1C(C)C` [Fenpyrazamine (b-99), Fenpyrazamine] has a Control value (Sphaerotheca fuliginea) of 33.
With `O=c1c2cc(F)ccc2nc(-n2cncn2)n1-c1ccc(Cl)cc1Cl` [Fluquinconazole (b-30), Fluquinconazole] the Preventive value (Sphaerotheca fuliginea) was 47 and the Preventive value (Botrytis cinerea) was 33.
Work on `N#Cc1ccccc1NC(=O)c1snc(Cl)c1Cl` [Isotianil(b-46)] yielded a Preventive value (Sphaerotheca fuliginea) of 33.
In the case of `CCCC(Cn1cncn1)c1ccc(Cl)cc1Cl` (stereo not shown) [Penconazole (b-32), Penconazole], the Preventive value (Botrytis cinerea) is reported as 17.
`CCCC(Cn1cncn1)c1ccc(Cl)cc1Cl` (stereo not shown) [Penconazole(b-32)] was tested, and the Preventive value (Sphaerotheca fuliginea) was 47.
Compound `CCCN(CCOc1c(Cl)cc(Cl)cc1Cl)C(=O)n1ccnc1` [Prochloraz (b-21), Prochloraz] has a Preventive value (Botrytis cinerea) of 17.
`CCCN(CCOc1c(Cl)cc(Cl)cc1Cl)C(=O)n1ccnc1` [Prochloraz(b-21)] gave a Preventive value (Sphaerotheca fuliginea) of 50.
`COC(=O)NCc1cc(/C(C)=N/OCc2cccc(C)n2)ccc1Cl` [Pyribencarb (b-98), Pyribencarb] showed a Preventive value (Botrytis cinerea) of 40.
In the case of `CN1OC(c2ccc(Cl)cc2)CC1(C)c1cccnc1` (stereo not shown) [Pyrisoxazole (b-103), Pyrisoxazole], the Preventive value (Sphaerotheca fuliginea) is reported as 33.
`CN(C)C(=S)SSC(=S)N(C)C` [Thiuram (b-68), Thiuram] gave a Preventive value (Sphaerotheca fuliginea) of 33.
In the case of Metiram [Metiram (b-67)], the Preventive value (Sphaerotheca fuliginea) is reported as 33.

From patent publication US10201158B2, “Plant disease control composition and method for controlling plant disease by application of same” (MITSUI CHEMICALS AGRO, INC., priority 2014, dated 2019)
